Experimental data taken from ChEMBL document CHEMBL1201862, “PubChem BioAssay data set” (2004).
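Exposure lasted 48 hours, with cells grown in 96-well plates and compounds tested at five concentrations. The concentration for 50% growth inhibition is given as GI50.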 Calls of active or inactive are those of the source. No stated cut-off is given here; in the data, active = GI50 up to about 1.1 µM and inactive = higher.

Key:
Assay in all cases: inhibition of tumour cell growth, NCI panel, 48 h
ACHN = test system: ACHN
BT-549 = test system: BT-549
CAKI-1 = test system: CAKI-1
HCC 2998 = test system: HCC 2998
HCT-116 = test system: HCT-116
HL-60 = test system: HL-60
IGROV-1 = test system: IGROV-1
K562 = test system: K562
MOLT-4 = test system: MOLT-4
SF-539 = test system: SF-539
SK-MEL-2 = test system: SK-MEL-2
SK-MEL-5 = test system: SK-MEL-5
SK-OV-3 = test system: SK-OV-3
SN12C = test system: SN12C
SNB-19 = test system: SNB-19
TK-10 = test system: TK-10
U-251 = test system: U-251
UACC-257 = test system: UACC-257
UACC-62 = test system: UACC-62
RPMI-8226 = test system: RPMI-8226

SMILES | GI50 (ACHN) | GI50 (BT-549) | GI50 (CAKI-1) | GI50 (HCC 2998) | GI50 (HCT-116) | GI50 (HL-60) | GI50 (IGROV-1) | GI50 (K562) | GI50 (MOLT-4) | GI50 (SF-539) | GI50 (SK-MEL-2) | GI50 (SK-MEL-5) | GI50 (SK-OV-3) | GI50 (SN12C) | GI50 (SNB-19) | GI50 (TK-10) | GI50 (U-251) | GI50 (UACC-257) | GI50 (UACC-62) | GI50 (RPMI-8226)
Nn1c(=O)[nH]c2ncn(Cc3ccccc3)c2c1=O | > 100 µM (inactive) | > 100 µM (inactive) | > 100 µM (inactive) | > 100 µM (inactive) | > 100 µM (inactive) | > 100 µM (inactive) | > 100 µM (inactive) | > 100 µM (inactive) | > 100 µM (inactive) | > 100 µM (inactive) | > 100 µM (inactive) | > 100 µM (inactive) | > 100 µM (inactive) | > 100 µM (inactive) | > 100 µM (inactive) | > 100 µM (inactive) | > 100 µM (inactive) | > 100 µM (inactive) | > 100 µM (inactive) | 
CC(C)(C)C(=O)Nc1cccc(-c2ccc[nH]2)n1 | > 100 µM (inactive) | > 100 µM (inactive) | > 100 µM (inactive) | > 100 µM (inactive) | > 100 µM (inactive) |  | > 100 µM (inactive) |  |  | > 100 µM (inactive) | > 100 µM (inactive) | 68.7 µM (inactive) | > 100 µM (inactive) | > 100 µM (inactive) | > 100 µM (inactive) | > 100 µM (inactive) | > 70.5 µM (inactive) | > 84.9 µM (inactive) | 86.9 µM (inactive) | < 0.01 µM (active)
O=C(NC1(C(=O)NNc2nnc(-c3ccccc3)c(-c3ccccc3)n2)C(c2ccccc2)C(c2ccccc2)=NN1c1ccccc1)c1ccccc1 (centres undefined) | > 100 µM (inactive) | > 100 µM (inactive) | > 100 µM (inactive) | 63.4 µM (inactive) | > 100 µM (inactive) | 46.8 µM (inactive) |  |  | > 100 µM (inactive) | > 100 µM (inactive) | > 100 µM (inactive) | > 100 µM (inactive) | > 100 µM (inactive) |  | > 100 µM (inactive) | > 100 µM (inactive) | > 100 µM (inactive) | > 100 µM (inactive) | > 100 µM (inactive) | 
O=C1CCCC2=C1C(c1ccc3c(c1)OCO3)Nc1ccc3ccccc3c12 (centres undefined) | 16 µM (inactive) | > 100 µM (inactive) | > 100 µM (inactive) | > 100 µM (inactive) | > 100 µM (inactive) |  | > 100 µM (inactive) |  |  | > 100 µM (inactive) | > 100 µM (inactive) | 93.5 µM (inactive) | > 100 µM (inactive) | > 100 µM (inactive) | > 100 µM (inactive) | > 100 µM (inactive) | > 100 µM (inactive) | > 100 µM (inactive) | > 100 µM (inactive) | > 100 µM (inactive)
O=C1c2scc(-c3ccccc3)c2-n2cccc21 | > 100 µM (inactive) | 25.9 µM (inactive) | 11.4 µM (inactive) | 20.4 µM (inactive) | 13.4 µM (inactive) |  | 2.59 µM (inactive) |  | 13.4 µM (inactive) |  | 12.2 µM (inactive) | 15.1 µM (inactive) | 19.3 µM (inactive) | 29.8 µM (inactive) | 15.9 µM (inactive) | 49.8 µM (inactive) | 14.1 µM (inactive) | 30.1 µM (inactive) | 17.9 µM (inactive) | 5 µM (inactive)
CCOC(=O)c1cc(=O)oc2c1N(C)c1ncccc1N2 | 86.9 µM (inactive) | > 100 µM (inactive) | > 100 µM (inactive) | > 100 µM (inactive) | > 100 µM (inactive) |  |  | > 100 µM (inactive) | > 100 µM (inactive) |  | > 100 µM (inactive) |  | > 100 µM (inactive) | > 100 µM (inactive) | > 100 µM (inactive) | > 100 µM (inactive) | > 100 µM (inactive) | > 100 µM (inactive) | > 100 µM (inactive) | > 100 µM (inactive)
Cc1ccc(-n2cc(-c3ccc(Cl)cc3)c3c2N=CN2N=C(c4cccs4)NC32)cc1 (centres undefined) | 5.07 µM (inactive) | 20.1 µM (inactive) | 16 µM (inactive) | 57 µM (inactive) | 5.13 µM (inactive) | 19.1 µM (inactive) | 14.2 µM (inactive) | 11.7 µM (inactive) |  | 16.2 µM (inactive) | 13.1 µM (inactive) | > 100 µM (inactive) | 14.9 µM (inactive) | 10.1 µM (inactive) | 17.9 µM (inactive) | 11.2 µM (inactive) | 4.81 µM (inactive) | 38.9 µM (inactive) | 23.2 µM (inactive) | 
N=C(N)N/N=C/c1c(-c2ccc(Cl)cc2)nc2sc(Cl)cn12 | 3.85 µM (inactive) | 1.27 µM (inactive) | 1.5 µM (inactive) |  | 0.43 µM (active) | 0.201 µM (active) | 0.755 µM (active) |  | 0.504 µM (active) | 1.27 µM (inactive) | 1.71 µM (inactive) | 1.62 µM (inactive) | 1.93 µM (inactive) | 1.77 µM (inactive) | 1.86 µM (inactive) | 1.72 µM (inactive) | 0.658 µM (active) | 1.8 µM (inactive) | 1.78 µM (inactive) | 
Cn1ccc(C(=O)NCCCCCNC(=O)c2ccn(C)c(=O)c2O)c(O)c1=O | > 100 µM (inactive) | > 100 µM (inactive) | > 100 µM (inactive) | > 100 µM (inactive) | > 100 µM (inactive) | > 100 µM (inactive) |  |  |  |  | > 100 µM (inactive) | > 100 µM (inactive) |  | > 100 µM (inactive) | > 100 µM (inactive) | > 100 µM (inactive) | > 100 µM (inactive) | > 100 µM (inactive) | > 100 µM (inactive) | 
Clc1ccc(-c2nc3ccc4ccccc4c3c3c2CCCC3)cc1 |  | > 100 µM (inactive) | > 100 µM (inactive) | > 100 µM (inactive) | 50.5 µM (inactive) |  | > 100 µM (inactive) | > 100 µM (inactive) | > 100 µM (inactive) | > 100 µM (inactive) | > 100 µM (inactive) | > 100 µM (inactive) | > 100 µM (inactive) |  | > 100 µM (inactive) | > 100 µM (inactive) | 94.4 µM (inactive) | > 100 µM (inactive) | > 100 µM (inactive) | > 100 µM (inactive)
COc1cc(OC)c2nc(C)c3c(c2c1)NCC3 | 4.88 µM (inactive) | 14.4 µM (inactive) |  | 7.83 µM (inactive) | 3.47 µM (inactive) | 15.7 µM (inactive) | 9.75 µM (inactive) | 0.776 µM (active) |  | 4.32 µM (inactive) | 9.42 µM (inactive) | 10 µM (inactive) | 14.3 µM (inactive) | 4.48 µM (inactive) | 12.6 µM (inactive) | 7.91 µM (inactive) | 9.35 µM (inactive) | 3.91 µM (inactive) | 9.16 µM (inactive) | 
O=C1C=CC(=O)C2=C1[C@@H](O)C1CC=CC3C(=O)O[C@@H]2C31 (some centres undefined) | 36.5 µM (inactive) |  | 20.4 µM (inactive) | 18.5 µM (inactive) | 19.8 µM (inactive) | 18.2 µM (inactive) | 14.8 µM (inactive) | 18.5 µM (inactive) | 20 µM (inactive) | > 43.9 µM (inactive) | 18.2 µM (inactive) | 20.6 µM (inactive) | > 100 µM (inactive) | 20.7 µM (inactive) | > 100 µM (inactive) | 28.2 µM (inactive) | > 77.8 µM (inactive) | 21.8 µM (inactive) | 19.2 µM (inactive) | 19.9 µM (inactive)
